Data set [1] concerns HT1080, HeLa and DU145 cells. The data set is described as follows: Colony formation assay, non-PCa and AR-negative PCa cells. The class given is cell-based, human. To be noted: 10 μM, 7 days. How it is done: Cell Colony Assay: Cells were plated in 24-well plates at a density allowing 6-7 days of exponential growth before confluency. Medium and compound was replaced every 48 hours to minimize the effect of potential compound instability. After 7 days of incubation in the presence of compound, cells were fixed and stained with methylene blue, followed by extraction of the stain with 1% SDS and spectrophotometry at 650 nm. Each assay was run in triplicate and the difference between control and compound-treated wells was determined using Student's t-test.
This Example provides a description of the effect of the selected compounds on the growth of PCa cells. To test the toxicity of the identified AR inhibitors towards cells of different origins, we performed colony formation assays using a single dose of each compound (10 μM) on several PCa (LNCaP, C4-2, CWR22R and DU145) and two non-PCa (HT1080 and HeLa) cell lines (FIG. 2A). […] These compounds were not weaker inhibitors of AR transcriptional activity in CWR22R or C4-2 cells than compounds that inhibited growth of the cells.

The test system of the next data set is CWR22R cells. The data set is described as follows: Cell cycle distribution by propidium iodide staining. The class given is cell-based, human. To be noted: propidium iodide FACS. How it is done: Analysis of cell cycle distribution was based on staining of DNA content by propidium iodide. 10^5 cells were removed from culture dishes using trypsin, washed with PBS and resuspended in 300 μl 3% BSA in PBS, followed by addition of […] 70% ethanol. Cells were kept at −20° C. for several hours and then stained with 10 μg/ml propidium iodide in the presence of 30 μg/ml RNase A for 2 hrs at 37° C. DNA content was assessed using a FACS Calibur instrument and CellQuest software (Becton Dickinson, Franklin Lakes, N.J.).
To test this possibility, we assessed the cell cycle distribution of CWR22R cells treated with both categories of compounds. […] Therefore, different subsets of compounds inhibiting AR-dependent transcription in androgen-independent PCa cells cause either growth arrest or apoptosis in these cells. Whether a compound causes growth arrest or apoptosis is not determined by the potency of the compound as an inhibitor of AR-dependent transcription (i.e., FIG. 2B).

For another data set, the system named is NIH Swiss mice. The data set is described as follows: Compound safety in mice, dose escalation. The following applies: three i.p. injections 20x, 50x, 100xIC50 in 3 day intervals. Type of data set: in vivo. Here is the method: Testing of compound safety in mice was done according to an IACUC-approved protocol. The experiment was performed using outbred 8 week old NIH Swiss male mice from Harlan (Indianapolis, Ind.), 4 mice per group. IC50 concentrations were used to calculate in vivo doses based on mouse weight (IC50 in vivo dose equivalent in mg/kg=IC50 in mg/ml×1000, based on the assumption that 1 g of mouse tissues have an approximate volume of 1 ml). The compounds were injected intraperitoneally (i.p.) in 25% DMSO-75% PBS starting from 20×IC50 equivalent of in vitro cytotoxic dose of compounds. […]. The control group of mice received 3 injections of 25% DMSO-75% PBS in intervals of three days. Blood biochemistry analysis was performed by BioReliance (Rockville, Md.).
Five hit compounds, representing both the ARTIS and ARTIK categories (c6, c11, c17, c52 and c85), were selected for in vivo tests based on all of the previous assays. Compound c5 was rejected due to very low microsomal stability (<5% after 1 hour incubation with rat microsomes). The toxicity of the compounds was evaluated in a dose escalation assay in which male NIH Swiss mice (n=4) received three sequential intraperitoneal (i.p.) injections of each compound delivered in 3 day intervals. […]. On the day after the last injection, half of the mice in each group were sacrificed for gross pathology examination and collection of blood for serum biochemistry assays, which include total protein, glucose, bilirubin, and creatinine levels, activity of liver enzymes, and ion concentrations. The remaining mice were sacrificed and evaluated similarly 7 days after the last compound injection. […] A minor decrease in serum glucose concentration (70-80% of control) was observed on the day after the last compound injection in almost all mice, but glucose levels were normal a week later (data not shown). Low serum glucose level might reflect of a weak transient GR-inhibitory effect of the selected compounds.

The next data set has as its system C4-2 tumors. The data set is described as follows: C4-2 xenograft model in nude mice. The class given is in vivo, mouse. The following applies: 6 daily i.p. injections, 100xIC50 dose. The source says: (§1) FIGS. 6A and 6B provide data showing anti-tumor activity of the selected hits in mouse models of androgen-independent PCa. FIG. 6A provides a graphical representation of data obtained from i.p. injection of the listed compounds or DMSO vehicle into nude mice carrying subcutaneous (s.c.) C4-2 tumors. Six daily injections were given starting when tumors were around 100 mm3 in size. There were 4-5 mice per group with two tumors per mouse. Asterisks (*) and number signs (#) are placed under the means of measurement in the c6 and c11 groups respectively which are statistically different from the control group by ANOVA test (>99%) B. C52 (9 mg/kg or 18 mg/kg) or DMSO vehicle was injected into the tail vein of nude mice carrying s.c. CWR22R tumors. Five daily injections were given starting when tumors were around 40 mm3 in size. There were 10 mice per group with one tumor per mouse. Asterisks (*) are placed under the means of measurement which are statistically different from the control group by ANOVA test (>99%). Error bars in both FIGS. 6A and B—standard deviation between the size of tumors within a given treatment group.
(§2) Testing of the anti-tumor effect of compounds in mice was done according to an IACUC-approved protocol in 8 week old male athymic nude mice from Harlan (Indianapolis, Ind.). For the C4-2 xenograft model, 10^6 C4-2 cells were injected subcutaneously (s.c.) in 2 sites of each mouse in 50% matrigel (BD Biosciences, Bradford, Mass.) in PBS. Upon development of visible tumors, they were measured using digital caliper. Tumor volume was calculated according to the formula: […]. Mice were injected with compounds i.p. daily for 6 days starting on the day when at least one tumor per mouse reached 100 mm^3 in size. Five mice per group were used. For the CWR22R xenograft model, CWR22R cells were inoculated (10^5 cells per inoculum) in 50% matrigel, one site per mouse. Treatment was started when the tumor grew to a size of at least 25 mm^3. Compounds were diluted in captisol (CyDex, Lenexa, Kans.) and delivered intravenously (to reduce “first pass” liver effect) once a day for 5 days. Ten mice per group were used. Mice were monitored daily and tumors were measured every other day. Mice were euthanized according to institutional regulations when the size of tumor reached 1000 mm^3. Comparison of the tumor growth in control and treated mice was done using ANOVA test.
We evaluated the potential anti-tumor effect of the hits using C4-2 and CWR22R xenograft models of androgen-independent PCa in nude mice. Groups of C4-2 tumor-bearing mice (4-5 mice per group, each with two tumors) were given 6 daily i.p. injections of compound (100×IC50 dose) or DMSO vehicle.

A further data set relates to CWR22R tumors. The data set is described as follows: CWR22R xenograft model in nude mice. The class given is in vivo, mouse. To be noted: for CWR22R tumor growth: five daily i.v. injections, c52 at 18 mg/kg/day.
Description: as §1, §2
ARTIK compounds, c52 and c85, were also tested in the CWR22R model.

With `CCCn1c2ccccc2c2cc(C(C)=O)ccc21` [c52], the “growth of / toxicity towards non-PCa cells or AR-negative PCa cells (DU145)” value in data set [1] is on record as “no toxicity”. In the data set with CWR22R cells, the “cells with sub-G1 DNA content (apoptotic)” value is “appearance of cells with sub-G1 DNA content”. Moreover, the “toxicity in mice (visual inspection, gross pathology)” value in the data set with NIH Swiss mice is given as “generally non-toxic”. For the same compound, in the data set with C4-2 tumors, the C4-2 tumor growth result is given as “did not”. The C4-2 tumor growth entry in the data set with C4-2 tumors (listed as C52) was “did not show in vivo efficacy”. Besides, in the data set on CWR22R tumors (among 10 mice, 18 mg/kg/day), the “mice in which tumors completely disappeared” value is 2 mice, the “mice in which tumors did not grow in size” value stood at 5 mice and the “mice in which tumors regressed” value is listed as 1 mouse. Moreover, the adverse side effects entry in the data set on CWR22R tumors (c52 18 mg/kg/day i.v., 5 days) is on record as “without any noticeable adverse side effects”. Further, the CWR22R tumor growth entry with CWR22R tumors (18 mg/kg/day) is “suppressed growth”. The CWR22R tumor growth result with CWR22R tumors (listed as C52, 18 mg/kg/day) was “effective”.

Values taken from patent publication US8835447B2, “Method for treating androgen receptor positive cancers” (priority 2009, dated 2014).
